{"source": "ChEMBL document CHEMBL5579877", "about": "“Design and Evaluation of 3-Phenyloxetane Derivative Agonists of the Glucagon-Like Peptide-1 Receptor” (J Med Chem, 2024)", "key": {"[1]": {"target": "T1, Glucagon-like peptide 1 receptor (Homo sapiens, UniProt P43220)", "T1 sequence (P43220 whole entry)": "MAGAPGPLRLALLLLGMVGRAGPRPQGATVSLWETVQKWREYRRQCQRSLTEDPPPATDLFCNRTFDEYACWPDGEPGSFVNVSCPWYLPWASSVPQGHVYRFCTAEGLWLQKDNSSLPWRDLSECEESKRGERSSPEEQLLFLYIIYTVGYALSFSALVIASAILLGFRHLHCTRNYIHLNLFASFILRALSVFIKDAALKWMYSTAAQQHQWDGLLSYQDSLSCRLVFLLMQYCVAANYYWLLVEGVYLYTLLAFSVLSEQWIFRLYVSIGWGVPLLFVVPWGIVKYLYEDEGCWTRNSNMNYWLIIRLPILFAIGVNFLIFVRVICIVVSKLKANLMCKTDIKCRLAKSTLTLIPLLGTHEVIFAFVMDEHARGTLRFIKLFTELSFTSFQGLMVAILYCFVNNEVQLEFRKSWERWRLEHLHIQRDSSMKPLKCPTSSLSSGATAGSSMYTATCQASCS", "assay": "Agonist activity at GLP-1R (unknown origin) assessed as beta-arrestin 1 recruitment", "assay_type": "functional"}, "[2]": {"target": "T1, Glucagon-like peptide 1 receptor", "assay": "Agonist activity at GLP-1R (unknown origin) assessed as beta-arrestin 2 recruitment", "assay_type": "functional"}, "hERG (KCNH2) [3]": {"target": "T2, hERG (KCNH2) (Homo sapiens, UniProt Q12809)", "T2 sequence (Q12809 whole entry)": "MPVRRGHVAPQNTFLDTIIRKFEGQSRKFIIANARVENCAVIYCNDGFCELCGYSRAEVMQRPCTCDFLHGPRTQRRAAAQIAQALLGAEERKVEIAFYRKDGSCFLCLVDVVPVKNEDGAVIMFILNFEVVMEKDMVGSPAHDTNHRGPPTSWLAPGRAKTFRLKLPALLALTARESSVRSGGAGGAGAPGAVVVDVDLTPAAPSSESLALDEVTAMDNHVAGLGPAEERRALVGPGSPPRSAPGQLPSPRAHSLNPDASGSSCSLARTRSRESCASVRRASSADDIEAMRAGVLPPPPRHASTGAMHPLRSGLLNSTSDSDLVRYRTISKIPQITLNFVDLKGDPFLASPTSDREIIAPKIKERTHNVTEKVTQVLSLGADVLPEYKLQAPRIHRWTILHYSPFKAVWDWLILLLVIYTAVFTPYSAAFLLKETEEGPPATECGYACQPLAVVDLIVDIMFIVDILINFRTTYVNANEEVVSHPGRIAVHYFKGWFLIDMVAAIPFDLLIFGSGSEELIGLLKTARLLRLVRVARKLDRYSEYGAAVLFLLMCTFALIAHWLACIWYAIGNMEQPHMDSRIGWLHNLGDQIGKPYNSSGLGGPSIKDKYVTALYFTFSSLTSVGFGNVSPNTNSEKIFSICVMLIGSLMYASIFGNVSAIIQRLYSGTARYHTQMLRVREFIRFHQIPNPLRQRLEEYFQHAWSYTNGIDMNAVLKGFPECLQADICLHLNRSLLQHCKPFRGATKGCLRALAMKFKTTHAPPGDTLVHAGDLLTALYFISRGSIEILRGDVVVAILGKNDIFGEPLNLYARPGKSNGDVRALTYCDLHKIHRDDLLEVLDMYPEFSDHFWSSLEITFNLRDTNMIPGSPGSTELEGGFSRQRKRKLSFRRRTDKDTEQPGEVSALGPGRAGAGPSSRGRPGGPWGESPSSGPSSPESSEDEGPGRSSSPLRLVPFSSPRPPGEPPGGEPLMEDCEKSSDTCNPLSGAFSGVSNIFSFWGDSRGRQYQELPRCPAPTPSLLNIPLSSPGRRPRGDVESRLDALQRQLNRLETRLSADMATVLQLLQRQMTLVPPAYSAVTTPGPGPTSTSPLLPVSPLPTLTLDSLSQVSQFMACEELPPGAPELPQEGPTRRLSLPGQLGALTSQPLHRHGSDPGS", "assay": "Inhibition of human ERG at 1 uM by whole cell patch clamp method relative to control", "assay_type": "toxicity"}, "hERG (KCNH2) [4]": {"target": "T2, hERG (KCNH2)", "assay": "Inhibition of human ERG at 10 uM by whole cell patch clamp method relative to control", "assay_type": "toxicity"}, "[5]": {"assay": "Metabolic stability in human liver microsomes assessed as half life at […] incubated upto 45 mins in presence of NADPH by LC-MS/MS analysis", "assay_type": "ADME, Microsome"}, "[6]": {"assay": "Efflux ratio of permeability across basolateral to apical side over apical to basolateral side in human Caco-2", "assay_type": "ADME, cell-based"}, "Cytochrome P450 2D6": {"target": "Cytochrome P450 2D6 (Homo sapiens, UniProt P10635)", "sequence (P10635 whole entry)": "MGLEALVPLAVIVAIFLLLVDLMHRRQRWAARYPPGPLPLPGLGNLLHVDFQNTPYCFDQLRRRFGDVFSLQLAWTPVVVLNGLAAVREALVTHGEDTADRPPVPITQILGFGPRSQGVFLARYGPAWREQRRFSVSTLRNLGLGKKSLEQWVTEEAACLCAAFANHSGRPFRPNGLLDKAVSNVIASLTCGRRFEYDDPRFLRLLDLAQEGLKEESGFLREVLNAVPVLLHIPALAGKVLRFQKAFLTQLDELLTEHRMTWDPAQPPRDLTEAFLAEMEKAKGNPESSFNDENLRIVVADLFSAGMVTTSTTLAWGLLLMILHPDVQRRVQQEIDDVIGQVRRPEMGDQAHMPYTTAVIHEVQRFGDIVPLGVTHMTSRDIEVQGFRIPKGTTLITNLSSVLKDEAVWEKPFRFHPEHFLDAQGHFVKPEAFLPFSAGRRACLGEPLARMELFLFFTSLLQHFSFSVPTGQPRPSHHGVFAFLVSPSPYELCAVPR", "assay": "Inhibition of CYP2D6 in human liver microsomes using dextromethorphan as substrate preincubated for 5 mins followed by NADPH addition and measured after 20 mins by LC-MS/MS analysis", "assay_type": "ADME, Microsome"}, "[7]": {"assay": "AUC in ICR mouse at 5 mg/kg, po by LC-MS/MS analysis", "assay_type": "ADME, organism-based", "conditions": "in vivo"}, "[8]": {"assay": "Half-life in ICR mouse at 5 mg/kg, po by LC-MS/MS analysis", "assay_type": "ADME, organism-based", "conditions": "in vivo"}, "[9]": {"assay": "Apparent volume of distribution in ICR mouse at 2 mg/kg, iv by LC-MS/MS analysis", "assay_type": "ADME, organism-based", "conditions": "in vivo, read-out: Vz"}, "[10]": {"assay": "Drug distribution in rat liver at 5 mg/kg, po", "assay_type": "ADME, organism-based", "conditions": "in vivo"}, "[11]": {"assay": "Drug distribution in rat intestine at 5 mg/kg, po", "assay_type": "ADME, organism-based", "conditions": "in vivo"}, "[12]": {"assay": "Drug distribution in rat stomach at 5 mg/kg, po", "assay_type": "ADME, organism-based", "conditions": "in vivo"}, "[13]": {"target": "T3, Glucagon-like peptide 1 receptor (Mus musculus) (UniProt O35659)", "T3 sequence (whole entry)": "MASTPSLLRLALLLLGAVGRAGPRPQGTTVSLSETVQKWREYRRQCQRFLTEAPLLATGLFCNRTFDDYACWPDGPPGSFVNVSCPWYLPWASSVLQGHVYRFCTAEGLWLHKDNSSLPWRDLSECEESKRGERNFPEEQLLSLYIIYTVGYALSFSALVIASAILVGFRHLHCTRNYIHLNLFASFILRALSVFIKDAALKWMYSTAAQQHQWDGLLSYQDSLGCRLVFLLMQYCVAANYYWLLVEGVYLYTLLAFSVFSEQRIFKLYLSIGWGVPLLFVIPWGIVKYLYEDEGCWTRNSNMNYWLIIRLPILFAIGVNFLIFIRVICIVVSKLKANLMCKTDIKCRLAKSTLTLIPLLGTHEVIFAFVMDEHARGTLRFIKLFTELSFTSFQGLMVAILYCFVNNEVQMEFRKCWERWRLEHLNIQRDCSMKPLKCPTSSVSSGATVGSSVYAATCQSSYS", "assay": "Activation of mouse GLP-1R"}, "[14]": {"target": "T4, Glucagon-like peptide 1 receptor (Rattus norvegicus) (UniProt P32301)", "T4 sequence (whole entry)": "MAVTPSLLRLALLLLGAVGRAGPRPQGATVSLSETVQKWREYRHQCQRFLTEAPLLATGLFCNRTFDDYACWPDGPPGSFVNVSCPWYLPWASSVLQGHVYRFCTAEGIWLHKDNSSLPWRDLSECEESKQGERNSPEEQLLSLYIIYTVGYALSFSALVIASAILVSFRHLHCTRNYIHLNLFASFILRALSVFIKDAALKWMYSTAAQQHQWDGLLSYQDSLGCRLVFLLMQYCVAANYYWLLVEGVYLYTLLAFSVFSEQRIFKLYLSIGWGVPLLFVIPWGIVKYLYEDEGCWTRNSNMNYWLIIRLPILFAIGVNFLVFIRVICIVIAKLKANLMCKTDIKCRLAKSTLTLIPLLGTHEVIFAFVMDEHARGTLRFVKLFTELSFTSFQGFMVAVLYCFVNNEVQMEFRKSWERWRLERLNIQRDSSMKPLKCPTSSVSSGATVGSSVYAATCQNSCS", "assay": "Activation of rat GLP-1R"}, "[15]": {"target": "T1, Glucagon-like peptide 1 receptor", "assay": "Activation of human GLP-1R", "conditions": "filed as activator"}, "Macaca mulatta": {"species_on_record": "Macaca mulatta", "assay": "Activation of monkey GLP-1R", "conditions": "filed as activator"}, "Mus musculus": {"tested_on": "Mus musculus", "assay": "Reduction in blood glucose level in human GLP-1R knock-in mouse at 1 mg/kg, po pretreated for 1 to 4 hrs followed by glucose addition and measured upto 120 mins by glucose meter", "assay_type": "functional, organism-based", "conditions": "time 180-360 min"}, "[16]": {"target": "T5, 5-hydroxytryptamine receptor 2A (Homo sapiens, UniProt P28223)", "T5 sequence (P28223 whole entry)": "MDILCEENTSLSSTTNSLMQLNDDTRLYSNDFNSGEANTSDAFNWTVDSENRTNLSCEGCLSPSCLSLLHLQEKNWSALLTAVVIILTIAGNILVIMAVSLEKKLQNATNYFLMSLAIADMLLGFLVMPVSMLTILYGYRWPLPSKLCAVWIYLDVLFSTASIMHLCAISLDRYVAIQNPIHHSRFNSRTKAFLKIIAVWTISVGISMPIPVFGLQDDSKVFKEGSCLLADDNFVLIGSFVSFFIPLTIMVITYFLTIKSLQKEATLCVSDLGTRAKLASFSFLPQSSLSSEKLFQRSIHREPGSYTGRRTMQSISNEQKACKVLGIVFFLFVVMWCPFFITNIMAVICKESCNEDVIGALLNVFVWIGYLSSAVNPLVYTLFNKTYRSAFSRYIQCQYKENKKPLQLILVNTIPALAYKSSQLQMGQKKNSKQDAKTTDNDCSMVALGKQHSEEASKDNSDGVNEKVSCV", "assay": "Inhibition of 5HT2A (unknown origin)"}, "[17]": {"target": "T5, 5-hydroxytryptamine receptor 2A", "assay": "Inhibition of 5HT2A (unknown origin) relative to control", "conditions": "concentration not given here"}, "[18]": {"assay": "Cmax in cynomolgus monkey at 20 mg/kg, po", "assay_type": "ADME, organism-based, Macaca fascicularis", "conditions": "in vivo"}, "[19]": {"target": "T6, 5-hydroxytryptamine receptor 1A (Homo sapiens, UniProt P08908)", "T6 sequence (P08908 whole entry)": "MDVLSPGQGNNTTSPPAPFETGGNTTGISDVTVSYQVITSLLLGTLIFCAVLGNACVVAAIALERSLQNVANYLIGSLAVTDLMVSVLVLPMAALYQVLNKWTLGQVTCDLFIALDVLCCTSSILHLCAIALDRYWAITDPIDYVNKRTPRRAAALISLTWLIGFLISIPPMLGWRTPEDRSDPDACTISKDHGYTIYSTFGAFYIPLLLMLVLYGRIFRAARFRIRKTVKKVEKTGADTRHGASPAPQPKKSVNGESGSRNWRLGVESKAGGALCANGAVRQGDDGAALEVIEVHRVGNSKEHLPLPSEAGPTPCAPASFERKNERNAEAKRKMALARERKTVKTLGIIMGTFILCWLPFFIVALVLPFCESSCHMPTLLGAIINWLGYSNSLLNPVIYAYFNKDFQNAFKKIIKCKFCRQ", "assay": "Inhibition of 5HT1A (unknown origin)"}, "[20]": {"target": "T7, 5-hydroxytryptamine receptor 1A (Homo sapiens) (UniProt P08908)", "T7 sequence (whole entry)": "T6 sequence (P08908 whole entry)", "assay": "Inhibition of 5HT1A (unknown origin) relative to control", "conditions": "concentration not given here"}}, "note": "The source made the active and inactive calls. The rule behind the calls is not given here.", "data": [{"smiles": "O=C(O)c1ccc2nc(CN3CCC(c4cccc(OCc5ccc(C6COC6)cc5F)n4)CC3)n(C[C@@H]3CCO3)c2c1", "values": [{"measurement": "Activity", "setting": "[1]", "value": "inactive"}, {"measurement": "Activity", "setting": "[2]", "value": "inactive"}, {"measurement": "inhibition at 1 µM", "setting": "hERG (KCNH2) [3]", "value": 3.75, "unit": "%"}, {"measurement": "inhibition at 10 µM", "setting": "hERG (KCNH2) [4]", "value": 40.7, "unit": "%"}, {"measurement": "half-life", "setting": "[5]", "value": 2.17, "unit": "h"}, {"measurement": "efflux ratio", "setting": "[6]", "value": 5.26}, {"measurement": "IC50", "setting": "Cytochrome P450 2D6", "value": "> 10", "unit": "µM"}, {"measurement": "AUC", "setting": "[7]", "value": 3000, "unit": "ng·h/mL"}, {"measurement": "half-life", "setting": "[8]", "value": 3.86, "unit": "h"}, {"measurement": "Vd", "setting": "[9]", "value": 12.2, "unit": "L/kg"}, {"measurement": "Drug uptake", "setting": "[10]", "value": "Active"}, {"measurement": "Drug uptake", "setting": "[11]", "value": "Active"}, {"measurement": "Drug uptake", "setting": "[12]", "value": "Active"}, {"measurement": "Activity", "setting": "[13]", "value": "inactive"}, {"measurement": "Activity", "setting": "[14]", "value": "inactive"}, {"measurement": "Activity", "setting": "[15]", "value": "Active"}, {"measurement": "Activity", "setting": "Macaca mulatta", "value": "Active"}, {"measurement": "Activity", "setting": "Mus musculus", "value": "Active"}, {"measurement": "IC50", "setting": "[16]", "value": 8.76, "unit": "µM"}, {"measurement": "inhibition", "setting": "[17]", "value": 57.8, "unit": "%"}]}, {"smiles": "N#Cc1ccc(COc2cccc(C3CCN(Cc4nc5ccc(C(=O)O)cc5n4C[C@@H]4CCO4)CC3)n2)c(F)c1", "note": "[DANUGLIPRON]", "values": [{"measurement": "half-life", "setting": "[5]", "value": 1.87, "unit": "h"}, {"measurement": "Cmax", "setting": "[18]", "value": 163, "unit": "µM"}, {"measurement": "IC50", "setting": "Cytochrome P450 2D6", "value": "> 10", "unit": "µM"}, {"measurement": "AUC", "setting": "[7]", "value": 2280, "unit": "ng·h/mL"}, {"measurement": "half-life", "setting": "[8]", "value": 1.62, "unit": "h"}, {"measurement": "Vd", "setting": "[9]", "value": 4.26, "unit": "L/kg"}, {"measurement": "Activity", "setting": "Mus musculus", "value": "Active"}, {"measurement": "IC50", "setting": "[19]", "value": 2.42, "unit": "µM"}, {"measurement": "inhibition", "setting": "[20]", "value": 86.9, "unit": "%"}]}]}
